Where “and” joins values, the source holds several entries; their conditions need not be identical. Identical values can stand only once. Like-named read-outs stand apart in the source and are kept apart here.
Experiments:
Candida albicans = test: Anti-fungal data: Candida albicans; format: cell-based; conditions: for MFC / MIC80: strain A39; for MIC: strain A39, read-out: Candida albicans (A39) MIC100
[1] = tested on: Mycobacterium tuberculosis; test: Compounds tested against Mycobacterium tuberculosis (MIC90); format: cell-based
Aspergillus fumigatus = test: Anti-fungal data: Aspergillus fumigatus; format: cell-based; conditions: for MFC / MIC80: strain DUMC 168.95; for MIC: strain DUMC 168.95, read-out: Aspergillus. Fumigatus (DUMC 168.95) MIC100
Trypanosoma cruzi = test: Anti-protozoan data: T. cruzi IC50; format: cell-based; conditions: read-out: T. cruzi IC50
[2] = tested on: L. donovani axenic amastigotes; test: In vitro anti-leishmania activity (IC50 vs. L. donovani axenic amastigotes); format: cell-based; conditions: Leishmania donovani
DNA = DNA binding ΔTm
[3] = tested on: Trypanosoma brucei rhodesiense; test: Anti-protozoan data: T.b.r. IC50; format: cell-based; conditions: read-out: T.b.r. IC50
Plasmodium falciparum = test: Anti-protozoan data: P. falcip. IC50; format: cell-based; conditions: read-out: P. falcip. IC50
Cryptococcus neoformans = test: Anti-fungal data: Cryptococcus neoformans; format: cell-based
[4] = Tables VI(a), VI(c), read-out: Leishmania donovani IC50
[5] = axenic amastigotes, Tables I-V, read-out: IC50 vs. L. donovani

Structure (SMILES)	MFC (Candida albicans)	MIC80 (Candida albicans)	MIC (Candida albicans)	MIC90 ([1]; read-out: M. tb. MIC90)	MFC (Aspergillus fumigatus)	MIC80 (Aspergillus fumigatus)	MIC (Aspergillus fumigatus)	IC50 (Trypanosoma cruzi; Tables VI(a), VI(c))	IC50 [2, 4]	IC50 [2, 5]	DNA binding Δ Tm (DNA; Tables VI(a), VI(c))	IC50 (in vitro)	IC50 ([3]; Tables VI(a), VI(c))	IC50 (Plasmodium falciparum; Tables VI(a), VI(c))	melting point	other results
Cl.Cl.N=C(N)c1ccc(OCCCOc2cccc(-c3cc4cc(C(=N)N)ccc4o3)c2)cc1 [Compound 32, 2-(3-(3-(4-Carbamimidoylphenoxy)propoxy)phenyl)benzofuran-5-carboxamidine dihydrochloride]	10 µg/mL	≤ 1 µg/mL	10 µg/mL	0.53 µg/mL and 1 µM	> 100 µg/mL	10 µg/mL	100 µg/mL	16100 nM	3420 ± 900 nM	3420 ± 900 nM	18.7	10400 nM	907 nM	39.7 nM	175 to 178 °C	
CC(C)NC(=N)c1ccc(OCCCOc2cccc(-c3cc4cc(C(=N)NC(C)C)ccc4o3)c2)cc1.Cl.Cl [Compound 33, 2-(3-(3-(4-(N-Isopropylcarbamimidoyl)phenoxy)propoxy)phenyl)-N-isopropylbenzofuran-5-carboxamidine dihydrochloride]	10 µg/mL	≤ 1 µg/mL	10 µg/mL	< 0.62 µg/mL and < 1 µM	> 100 µg/mL	10 µg/mL	100 µg/mL	93600 nM	4490 ± 560 nM	4490 ± 560 nM	14.8	26500 nM	547 nM	61.3 nM	205 to 208 °C	
CC(C)NC(=N)c1ccc(OCCCCCOc2cccc(-c3cc4cc(C(=N)NC(C)C)ccc4o3)c2)cc1.Cl.Cl [Compound 39, 2-(3-(5-(4-(N-Isopropylcarbamimidoyl)phenoxy)pentyloxy)phenyl)-N-isopropylbenzofuran-5-carboxamidine dihydrochloride]	100 µg/mL	10 µg/mL	100 µg/mL	1.12 µg/mL and 1.8 µM	> 100 µg/mL	10 µg/mL	100 µg/mL	26000 nM	6860 ± 2100 nM	6860 ± 2100 nM	20.8	10100 nM	452 nM	123 nM	225 to 227 °C	
CC(C)NC(=N)c1ccc(OCCCOc2ccc(-c3cc4cc(C(=N)NC(C)C)ccc4o3)cc2)cc1.Cl.Cl [Compound 45, 2-(4-(3-(4-(N-Isopropylcarbamimidoyl)phenoxy)propoxy)phenyl)-N-isopropylbenzofuran-5-carboxamidine dihydrochloride]	10 µg/mL	10 µg/mL	10 µg/mL	1.12 µg/mL and 1.86 µM		100 µg/mL	> 100 µg/mL	70400 nM	1560 ± 580 nM			45600 nM	40.9 nM	41.8 nM	301 to 302 °C	
Cl.Cl.N=C(N)c1ccc(OCCCCOc2ccc(-c3cc4cc(C(=N)N)ccc4o3)cc2)cc1 [Compound 47, 2-(4-(4-(4-Carbamimidoylphenoxy)butoxy)phenyl)benzofuran-5-carboxamidine dihydrochloride]	10 µg/mL	≤ 1 µg/mL	10 µg/mL	31.8 µg/mL and 59.8 µM	> 100 µg/mL	10 µg/mL	100 µg/mL	2490 nM	610 ± 530 nM	610 ± 530 nM	11.8	1300 nM	164 nM	141 nM	310 °C	
CC(C)NC(=N)c1ccc(OCCCCOc2ccc(-c3cc4cc(C(=N)NC(C)C)ccc4o3)cc2)cc1.Cl.Cl [Compound 48, 2-(4-(4-(4-(N-Isopropylcarbamimidoyl)phenoxy)butoxy)phenyl)-N-isopropylbenzofuran-5-carboxamidine dihydrochloride]	100 µg/mL	100 µg/mL	100 µg/mL	59.4 µg/mL and 95.6 µM	> 100 µg/mL	10 µg/mL	100 µg/mL	21000 nM	2970 ± 160 nM		13.3	6920 nM	1110 nM	302 nM	305 °C	
Cl.Cl.c1cc(C2=NCCN2)ccc1OCCCCOc1ccc(-c2cc3cc(C4=NCCN4)ccc3o2)cc1 [Compound 49, 2-(2-(4-(4-(4-(4,5-Dihydro-1H-imidazol-2-yl)phenoxy)butoxy)phenyl)benzofuran-5-yl) -4,5-dihydro-1H-imidazole dihydrochloride]		100 µg/mL	> 100 µg/mL			100 µg/mL	> 100 µg/mL	4510 nM	9210 ± 2250 nM	9210 ± 2250 nM	18.8	2880 nM	374 nM	64.1 nM	291 to 293 °C	
CC(C)NC(=N)c1ccc(OCCCCCOc2ccc(-c3cc4cc(C(=N)NC(C)C)ccc4o3)cc2)cc1.Cl.Cl [Compound 51, 2-(4-(5-(4-(N-Isopropylcarbamimidoyl)phenoxy)pentyloxy)phenyl)-N-isopropylbenzofuran-5-carboxamidine dihydrochloride]	100 µg/mL	100 µg/mL	100 µg/mL	0.9 µg/mL and 1.43 µM	> 100 µg/mL	100 µg/mL	100 µg/mL	7680 nM	2080 ± 640 nM		18.7	20500 nM	302 nM	193 nM	260 to 263 °C	
Cl.Cl.c1cc(C2=NCCN2)ccc1OCCCCCOc1ccc(-c2cc3cc(C4=NCCN4)ccc3o2)cc1 [Compound 52, 2-(2-(4-(5-(4-(4,5-Dihydro-1H-imidazol-2-yl)phenoxy)pentyloxy)phenyl)benzofuran-5-yl)-4,5-dihydro-1H-imidazole dihydrochloride]	10 µg/mL	10 µg/mL	10 µg/mL	10.1 µg/mL and 16.9 µM	> 100 µg/mL	10 µg/mL	100 µg/mL	2270 nM	39400 ± 7350 nM			870 nM	338 nM	60 nM	258 to 261 °C	
CC(C)NC(=N)c1ccc(OCCCCCCOc2ccc(-c3cc4cc(C(=N)NC(C)C)ccc4o3)cc2)cc1.Cl.Cl [Compound 54, 2-(4-(6-(4-(N-Isopropylcarbamimidoyl)phenoxy)hexyloxy)phenyl)-N-isopropylbenzofuran-5-carboxamidine dihydrochloride]		> 100 µg/mL	> 100 µg/mL	65.8 µg/mL and 102 µM		> 100 µg/mL	> 100 µg/mL	1210 nM	5400 ± 1460 nM			850 nM	211 nM	63.4 nM	288 to 291 °C	
Cl.Cl.c1cc(C2=NCCN2)ccc1OCCCCCCOc1ccc(-c2cc3cc(C4=NCCN4)ccc3o2)cc1 [Compound 55, 2-(2-(4-(6-(4-(4,5-Dihydro-1H-imidazol-2-yl)phenoxy)hexyloxy)phenyl)benzofuran-5-yl)-4,5-dihydro-1H-imidazole dihydrochloride]	10 µg/mL	10 µg/mL	10 µg/mL	> 82.7 µg/mL and > 128 µM		10 µg/mL	> 100 µg/mL	1830 nM	3320 ± 970 nM		14.4	1480 nM	360 nM	116 nM	275 to 277 °C	
Cl.Cl.c1cc(OCCCCCCOc2ccc(C3=NCCN3)cc2)cc(-c2cc3ccc(C4=NCCN4)cc3o2)c1 [Compound 67, 2-(2-(3-(6-(4-(4,5-Dihydro-1H-imidazol-2-yl)phenoxy)hexyloxy)phenyl)benzofuran-6-yl)-4,5-dihydro-1H-imidazole dihydrochloride]	1.56 µg/mL	1.56 µg/mL	1.56 µg/mL	18 µg/mL and 29.4 µM	> 100 µg/mL	12.5 µg/mL	12.5 µg/mL	3670 nM	43500 ± 690 nM	43500 ± 690 nM		1790 nM	681 nM	41.2 nM	182 to 186 °C	MFC (Cryptococcus neoformans; strain H99): 1.56 µg/mL; MIC80 (Cryptococcus neoformans; strain H99): 0.781 µg/mL; MIC (Cryptococcus neoformans; strain H99, read-out: Cryptococcus neoformans (H99) MIC100): 1.56 µg/mL
N=C(NO)c1ccc(-c2cc3cc(C(=N)NO)ccc3o2)cc1 [Compound 178, 2-(4-(N-Hydroxycarbamimidoyl)phenyl)-N-hydroxybenzofuran-5-carboxamidine]												> 235000 nM				MIC90 ([1]; Table VII(b), read-out: M. tb MIC90): > 128 µM; IC50 (Trypanosoma cruzi): > 235000 nM; IC50 ([2]; read-out: L. Donovani IC50): > 100000 nM; DNA binding Δ Tm (DNA): 4.50; IC50 [3]: 23600 nM; IC50 (Plasmodium falciparum): 783 nM
N=C(NO)c1ccc(OCCCOc2ccc(-c3cc4cc(C(=N)NO)ccc4o3)cc2)cc1 [Compound 182, 2-(4-(3-(4-(N-Hydroxycarbamimidoyl)phenoxy)propoxy)phenyl)-N-hydroxybenzofuran-5-carboxamidine]				0.65 µg/mL and 1.2 µM				1700 nM	5020 ± 930 nM		1.10	2640 nM	1340 nM	1400 nM		
